Laboratory results reported in ChEMBL document CHEMBL1125716, “1,2,4-Triazolo[4,3-a]pyrazine derivatives with human renin inhibitory activity. 3.1 Synthesis and biological properties of aminodeoxystatine and difluorostatone derivatives” (J Med Chem, 1991).

target: T1, Renin (Homo sapiens, UniProt P00797); assay: Inhibition of human renin
T1 sequence (P00797 whole entry): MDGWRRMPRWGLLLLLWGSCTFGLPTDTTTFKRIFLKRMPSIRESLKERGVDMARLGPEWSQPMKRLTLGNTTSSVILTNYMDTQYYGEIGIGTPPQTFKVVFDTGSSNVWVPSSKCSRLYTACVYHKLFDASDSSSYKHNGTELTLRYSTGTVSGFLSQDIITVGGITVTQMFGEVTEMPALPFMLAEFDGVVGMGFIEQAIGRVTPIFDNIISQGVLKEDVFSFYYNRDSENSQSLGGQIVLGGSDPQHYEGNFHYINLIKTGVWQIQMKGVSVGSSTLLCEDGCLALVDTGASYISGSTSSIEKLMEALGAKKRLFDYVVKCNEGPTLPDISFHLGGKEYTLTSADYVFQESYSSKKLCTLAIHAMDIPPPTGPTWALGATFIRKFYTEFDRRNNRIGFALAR

Compound	IC50 [nM]
CCCc1nc(-c2cccnc2)cn2c(C(Cc3cccnc3)C(=O)NC(CC3CCCCC3)C(=O)C(F)(F)C(=O)NCCC(C)C)nnc12 (stereo unspecified)	1.8
CC(C)Cc1nc(-c2ccccc2)cn2c([C@H](Cc3cccnc3)C(=O)N[C@@H](CC3CCCCC3)C(N)CC(=O)NC(CC(C)C)C(=O)NCc3ccccn3)nnc12 (stereo in doubt; 13b)	100
CCCc1nc(-c2cccnc2)cn2c(CC(=O)NC(CC3CCCCC3)C(=O)C(F)(F)C(=O)NCCC(C)C)nnc12 (stereo unspecified)	1.6
CC(C)Cc1nc(-c2ccccc2)cn2c([C@@H](Cc3cccnc3)C(=O)N[C@H](CC3CCCCC3)C(N)CC(=O)NC(CC(C)C)C(=O)NCc3ccccn3)nnc12 (stereo in doubt; 13d)	120
CC(C)Cc1nc(-c2ccccc2)cn2c([C@H](Cc3cccnc3)C(=O)N[C@@H](CC3CCCCC3)C(N)CC(=O)NC(CC(C)C)C(=O)NCc3ccccn3)nnc12 (stereo in doubt; 13a)	3.9
CCCc1nc(-c2cccnc2)cn2c(CC(=O)NC(CC3CCCCC3)C(=O)C(F)(F)C(=O)NCC)nnc12 (stereo unspecified)	1.4
CC(C)Cc1nc(-c2ccccc2)cn2c(C(Cc3cccnc3)C(=O)NC(CC(C)CC3CCCCC3)C(O)CC(=O)NC(CC(C)C)C(=O)NCc3cccc(CN)c3)nnc12 (stereo unspecified)	1.7
CC(C)Cc1nc(-c2ccccc2)cn2c([C@@H](Cc3cccnc3)C(=O)N[C@H](CC3CCCCC3)C(N)CC(=O)NC(CC(C)C)C(=O)NCc3ccccn3)nnc12 (stereo in doubt; 13c)	6.1
CC(C)Cc1nc(-c2ccccc2)cn2c(CC(=O)NC(CC3CCCCC3)C(=O)C(F)(F)C(=O)NC(CC(C)C)C(=O)NCc3ccccn3)nnc12 (stereo unspecified)	1.9
CC(C)CCNC(=O)C(F)(F)C(=O)C(CC1CCCCC1)NC(=O)Cc1nnc2c(CC(C)C)nc(-c3ccccc3)cn12 (stereo unspecified)	38
CCCc1nc(-c2cccnc2)cn2c(CC(=O)NC(CC3CCCCC3)C(=O)C(F)(F)C(=O)NCC(C)CC)nnc12 (stereo unspecified)	1.7
